Assay results as given in the CombiSolv-Exp solvation set (Vermeire and Green 2021).

Assay: solvent given as SMILES

CCC=CCC
Conditions | solvation free energy, 298 K [kcal/mol]
in C=CCCCCCCCCCCCCCC | -3.51
in O | 1.62

c1ccc2c(c1)Nc1ccccc1S2
Conditions | solvation free energy, 298 K [kcal/mol]
in C1CCOC1 | -14.7
in C1COCCO1 | -14.4
in CC(C)(C)O | -12.7
in CC(C)CC(C)(C)C | -10.9
in CC(C)CC(C)O | -12.6
in CC(C)CCO | -12.8
in CC(C)CO | -12.6
in CC(C)O | -12.8
in CC(C)OC(C)C | -12.8
in CCC(C)CO | -12.7
in CCC(C)O | -12.8
in CCCC(C)CO | -12.8
in CCCC(C)O | -12.8
in CCCCC(CC)CO | -12.7
in CCCCCC | -11.1
in CCCCCCC | -11.2
in CCCCCCCC | -11.2
in CCCCCCCCCC | -11.2
in CCCCCCCCCCO | -13
in CCCCCCCCO | -13.1
in CCCCCCCO | -13.1
in CCCCCCO | -13.1
in CCCCCO | -13.1
in CCCCO | -13.1
in CCCCOCCCC | -12.7
in CCCO | -13.1
in CCCOC(C)=O | -13.9
in CCO | -13.2
in CCOCC | -13.5
in CO | -13.1
in COC(C)(C)C | -13.4

CC1=CCC2CC1C2(C)C (stereo not given)
Conditions | solvation free energy, 298 K [kcal/mol]
in O | 0.97

CC(C)=CC(C)(C)C
Conditions | solvation free energy, 298 K [kcal/mol]
in CCC(C)=O | -4.39
in O | 1.84

OCC(F)(F)F
Conditions | solvation free energy, 298 K [kcal/mol]
in C1COCCO1 | -5.63
in CC(=O)N(C)C | -6.81
in CN(C)C=O | -6.93
in O | -4.31

Cc1ccccc1N(O)C(=O)c1ccc(Cl)cc1
Conditions | solvation free energy, 298 K [kcal/mol]
in O | -10.8

Clc1ccccc1
Conditions | solvation free energy, 298 K [kcal/mol]
in C1CCOC1 | -6.04
in C1COCCO1 | -5.78
in CC(=O)N(C)C | -5.01
in CC(C)(C)O | -5.03
in CC(C)=O | -5.65
in CC(C)CC(C)(C)C | -4.92
in CC(C)CCO | -5.12
in CC(C)CO | -5.09
in CC(C)O | -4.92
in CC(O)CO | -4.36
in CCC(C)O | -5.09
in CCCCCC | -5.21
in CCCCCCC | -5.17
in CCCCCCCCCC | -4.93
in CCCCCCCCCCCCCCCC | -4.94
in CCCCCO | -5.21
in CCCCCl | -5.59
in CCOC(C)=O | -5.66
in CN(C)C=O | -5.66
in CNC(C)=O | -5.17
in CO | -5.01
in COCCO | -5.23
in Cc1ccc(C)cc1 | -5.52
in Cc1ccccc1C | -5.59
in ClCCl | -5.91
in N#Cc1ccccc1 | -5.63
in NC=O | -3.58
in O | -1.14
in OCCO | -3.88
